Measured values reported in PubChem BioAssay (NCI).
“And” between values parts separate entries of the source, which are not always exact repeats. Identical values can stand only once.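 Briefly, cells in 96-well plates were exposed to five compound concentrations for 48 h, and endpoints were estimated by linear interpolation. Here, GI50 denotes the concentration required for 50% inhibition of growth. The concentration for full growth arrest is given as TGI.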

What was measured:
Assay in all cases: NCI tumour cell line growth inhibition, 48 h
[1] = system: SK-MEL-5 melanoma
[2] = system: A498 renal
[3] = system: SNB-75 CNS
[4] = system: MALME-3M melanoma
[5] = system: K-562 leukemia
[6] = system: UACC-257 melanoma
[7] = system: IGROV1 ovarian
[8] = system: SNB-19 CNS
[9] = system: SK-OV-3 ovarian
[10] = system: MDA-MB-231 breast

SMILES | TGI [1] [µM] | TGI [2] [µM] | TGI [3] | TGI [4] [µM] | TGI [5] [µM] | TGI [6] [µM] | TGI [7] | TGI [8] | TGI [9] [µM] | GI50 [1] [µM] | GI50 [9] [µM] | GI50 [10] [µM] | TGI [10] [µM] | GI50 [5] [µM] | GI50 [6] [µM] | GI50 [7] [µM] | GI50 [8] [µM] | GI50 [2] [µM] | GI50 [3] [µM] | GI50 [4] [µM]
S=c1nc(COc2ccc(Cl)cc2Cl)[nH][nH]1 | > 100 | > 100 | > 100 µM | > 100 | > 100 | > 100 | > 100 µM | > 100 µM |  |  |  |  |  |  |  |  |  |  |  | 
N#CC1CCCCOCCOCCOCCOCCOCCCCCC1=O (centres undefined) | > 100 | > 100 | > 100 µM | > 100 | > 100 | > 100 | > 100 µM | > 100 µM | > 100 |  |  |  |  |  |  |  |  |  |  | 
O=[N+]([O-])c1ccc(Cl)c(C2CC(c3cccc4ccccc34)=Nc3ccccc3S2)c1 (centres undefined) | > 31.6 | > 78.9 | 60.5 µM | > 100 | > 69.6 | > 100 | > 100 µM | > 100 µM | > 100 |  |  |  |  |  |  |  |  |  |  | 
Cc1nnc2c3nnc(C)n3c3ccccc3n12 | > 100 | > 100 | > 100 µM | > 100 | > 100 | > 100 | > 100 µM | > 100 µM | > 100 |  |  |  |  |  |  |  |  |  |  | 
Cc1cc(S(=O)(=O)/N=C/N(C)C)c(SC(=O)c2ccc(Cl)cc2)cc1Cl | 36.5 |  |  |  | > 100 | > 100 | > 100 µM | > 100 µM | > 100 | 10.8 | > 100 | 25.8 | 69.9 | 46.5 | > 100 | 38.5 | 53.8 |  |  | 
O=c1cc(-c2c[nH]c3ccccc23)[nH]c2cc3c(cc12)OCO3 | > 100 | > 100 | 72.6 µM | > 100 | > 100 | > 100 | > 100 µM | > 100 µM |  |  |  |  |  |  |  |  |  |  |  | 
CS(=O)(=O)NNS(=O)(=O)c1ccccc1 | > 100 | > 100 | > 100 µM | > 100 | > 100 | > 100 | > 100 µM | > 100 µM |  |  |  |  |  |  |  |  |  |  |  | 
CN(C)c1nnnn1-c1c(N)n(C)c(=O)n(C)c1=O | > 100 | > 100 | > 100 µM | > 100 | > 100 | > 100 | > 100 µM | > 100 µM | > 100 |  |  |  |  |  |  |  |  |  |  | 
CC(=O)N1N=C(c2ccc(Nc3ccnc4cc(Cl)ccc34)cc2)CC1c1ccc(Cl)cc1 (centres undefined) | 16 | > 100 |  |  |  | > 100 | > 100 µM | > 100 µM |  | 2.2 |  | > 100 | > 100 |  | > 100 | > 100 | > 100 | > 100 |  | 
Cc1ccc(NC(=O)C2C(=O)N(c3ccc(C)c(C)c3)C(=O)/C2=N\NC(N)=O)cc1C (centres undefined) | > 100 | > 100 | > 100 µM | > 100 | > 100 | > 100 | > 100 µM | > 100 µM | > 100 |  |  |  |  |  |  |  |  |  |  | 
NC(=O)c1ccccc1NC(=O)C(=O)Cc1nc2ccccc2[nH]c1=O | > 100 | > 100 | > 100 µM | > 100 | > 100 | > 100 | > 100 µM | > 100 µM | > 100 |  |  |  |  |  |  |  |  |  |  | 
Cc1cc(-c2ccccc2)nc(Nc2nc3ccccc3o2)n1 | > 100 | > 100 |  | > 100 | > 100 | > 100 | > 100 µM | > 100 µM | > 100 |  |  |  |  |  |  |  |  |  |  | 
Clc1ccc(-c2csc(Nc3cccc(-c4csc(-c5ccccc5)n4)c3)n2)cc1 | 18.9 | 28.3 |  |  | 16.3 | 29 | 39 µM | 27.3 µM | > 50 | 8.95 | 25.3 | 6.77 | 15.3 | 7.11 | 14.9 | 13.5 | 13 | 15.9 |  | 
COC(=O)C1OC2(CCCC3CC32)O[C@H]1C(=O)OC (some centres undefined) |  |  | > 100 µM | > 100 | > 100 | > 100 | > 100 µM | > 100 µM | > 100 |  |  |  | > 100 |  |  |  |  |  |  | 
NC(=O)c1c([N+](=O)[O-])cc(C(F)(F)F)cc1[N+](=O)[O-] | > 100 | > 100 | > 100 µM | 52.1 | > 100 | 99.8 | > 100 µM | > 100 µM | > 100 |  |  |  |  |  |  |  |  |  |  | 
CCC(c1ccc(OC)cc1)C(CC)c1ccc(O)c(CN2CCN(C)CC2)c1 (centres undefined) | 3.22 | 16.1 | 23 µM |  | 14.8 | 4.97 | 18 µM | 18.5 µM | 29.2 | 1.69 | 13.8 | 3.7 | 15.1 | 2.71 | 2.1 | 5.4 | 4.88 | 4.13 | 10 | 

SMILES | TGI [1] [µM] | TGI [2] [µM] | TGI [3] | TGI [4] [µM] | TGI [5] [µM] | TGI [6] [µM] | TGI [7] | TGI [8] | TGI [9] [µM] | GI50 [1] [µM] | GI50 [9] [µM] | GI50 [10] [µM] | TGI [10] [µM] | GI50 [5] [µM] | GI50 [6] [µM] | GI50 [7] [µM] | GI50 [8] [µM] | GI50 [2] [µM] | GI50 [3] [µM] | GI50 [4] [µM]
Cc1noc2c1C(=O)CCC2 |  |  | > 100 µM | > 100 | > 100 | > 100 |  |  | > 100 |  |  |  |  |  |  |  |  |  |  | 
O=C(CN1CCN(c2cc3c(cc2F)c(=O)c(C(=O)O)cn3C2CC2)CC1)Nc1nc(-c2ccc(Cl)cc2)cs1 | 8.05 |  | > 100 µM | 11.1 | > 100 | 22.2 | > 100 µM | > 100 µM | 19.1 | 2.76 | 3.24 | 5.09 | 61 | 2.95 | 3.94 | 7.91 | 4.71 |  | 3.71 | 3.19
Cc1cn(C2C=CC(CO)O2)c(=O)[nH]c1=O (centres undefined) | > 1000 |  | > 1000 µM | > 1000 | > 1000 | > 1000 | > 1000 µM | > 1000 µM | > 1000 |  |  |  | > 1000 |  |  |  |  |  |  | 
CCC/C=C1\CCC(CN(C)C)C1=O (centres undefined) | 32.3 | 23.9 | 32.9 µM | 11.4 |  | 30.8 | 34.4 µM | > 67 µM | > 56.7 |  |  |  |  |  |  |  |  |  |  | 
Oc1ccc(O)c(-c2cc(-c3ccc(Cl)cc3)nn2-c2ccccc2)c1 | 28.8 | 13.8 |  |  | 12.1 | 19.1 | > 100 µM |  |  | 10.1 |  | 2.33 | 6.82 | 3.23 | 4.95 | 9.95 |  | 0.755 |  | 
Cc1cccc(C(C)C)c1N1C(=O)C(=O)C(c2nc3ccccc3o2)C(=O)C1=O | > 100 | > 100 | > 100 µM | > 100 | > 100 | > 100 | > 100 µM | > 100 µM | > 100 |  |  |  |  |  |  |  |  |  |  | 
O=C(CC1(O)C(=O)Nc2ccc(Br)cc21)c1ccc(Cl)cc1Cl (centres undefined) |  | > 100 | > 100 µM | > 100 | > 100 | > 100 | > 100 µM | > 100 µM | > 100 |  |  |  |  |  |  |  |  |  |  | 
O=[N+]([O-])c1ccc(-c2noc(-c3ccc(Cl)cc3)c2C2=NCCN2)cc1 | > 100 |  |  | > 100 | > 100 | > 100 | > 100 µM | > 100 µM |  |  |  |  |  |  |  |  |  |  |  | 
CC(=O)NC1C(OCc2ccccc2)OC(CO)C(O)C1OC(C)C(=O)N[C@@H](C)C(=O)N[C@H](CCC(=O)OCCNc1c2ccccc2nc2cccc([N+](=O)[O-])c12)C(N)=O (some centres undefined) | 0.00855 | 0.0199 | 0.0405 µM and 0.00887 µM | 0.00356 | > 0.1 | 0.0201 | 0.0679 µM and 0.022 µM | 0.00277 µM and 0.00694 µM | 0.0288 |  |  |  |  |  |  |  |  |  |  | 
COC(=O)C1=C(c2ccc(OC)c(OC)c2)OC(c2cc(OC)c(OC)c(OC)c2)C1 (centres undefined) | > 100 | 63 | 25.6 µM | > 100 | > 100 | > 100 | > 100 µM |  | 56.8 |  |  |  |  |  |  |  |  |  |  | 
CCN(CC)c1ccc(N=Nc2ccc([N+](=O)[O-])cc2OC(=O)/C=C/c2ccccc2)c(OC(=O)/C=C/c2ccccc2)c1 | > 100 | > 58.4 | > 100 µM | > 100 | > 100 | 99.7 | > 100 µM | > 100 µM | > 100 |  |  |  |  |  |  |  |  |  |  | 
O=C1NC(=O)C(=Nc2cccc3c(=O)[nH][nH]c(=O)c23)C(c2nc3ccccc3s2)C1=O (centres undefined) | > 100 | > 100 | > 100 µM | > 100 |  | > 100 | > 100 µM | > 100 µM | > 100 |  |  |  |  |  |  |  |  |  |  | 
COC(=O)C(=CNC(N)=O)C(=O)OC | > 100 |  |  |  | > 100 | > 100 | > 100 µM | > 100 µM |  |  |  |  |  |  |  |  |  |  |  | 
C[N+](C)(C)CC1CCC/C1=N/O (centres undefined) | > 100 | > 100 | > 100 µM | > 100 | 44.6 | > 100 | > 100 µM | > 100 µM | > 100 |  |  |  |  |  |  |  |  |  |  | 
Cn1c(=O)c(NC(=O)C(Cl)(Cl)Cl)nc2ccccc21 | > 100 | > 100 | > 100 µM | > 100 | > 100 | > 100 | > 100 µM | > 100 µM | > 100 |  |  |  |  |  |  |  |  |  |  | 
CN=C(NC(=S)N(C)C)N(C)C | > 100 | > 100 | > 100 µM | > 100 | > 100 | > 100 | > 100 µM | > 100 µM | > 100 |  |  |  |  |  |  |  |  |  |  | 
